Test results from US20230095836A1, “SUBSTITUTED 5,6-DIPHENYL-3(2H)-PYRIDAZINONES FOR USE AS FUNGICIDES” (FMC Corporation, priority 2020, published 2023).

Columns and labels:
Assay type in all cases: in vivo
Conditions in all cases: 50 ppm
Alternaria solani = test: Test F: test suspension sprayed on tomato seedlings, inoculated next day with Alternaria solani (tomato early blight); visual disease rating (100 = 100% disease control, 0 = no control; dash = not tested)
Description: (§1) The resulting test suspensions were then used in Tests A-F. The test suspension was sprayed to the point of run-off on tomato seedlings. The following day the seedlings were inoculated with a spore suspension of Alternaria solani (the causal agent of tomato early blight) and incubated in a saturated atmosphere at 27° C. for 48 h, and then moved to a growth chamber at 20° C. for 3 days, after which time visual disease ratings were made. A rating of 100 indicates 100% disease control and a rating of 0 indicates no disease control (relative to the controls). A dash (—) indicates the compound was not tested.

Zymoseptoria tritici = test: Test A: test solution sprayed on wheat seedlings, inoculated next day with Zymoseptoria tritici (wheat leaf blotch); disease rating (100 = 100% disease control, 0 = no control; dash = not tested)
Description: The resulting test suspensions were then used in Tests A-F. The test solution was sprayed to the point of run-off on wheat seedlings. The following day the seedlings were inoculated with a spore suspension of Zymoseptoria tritici (the causal agent of wheat leaf blotch) and incubated in a saturated atmosphere at 24° C. for 48 h, and then moved to a growth chamber at 20° C. for 17 days, after which time disease ratings were made. A rating of 100 indicates 100% disease control and a rating of 0 indicates no disease control (relative to the controls). A dash (—) indicates the compound was not tested.

Botrytis cinerea = test: Test E: test suspension sprayed on tomato seedlings, inoculated next day with Botrytis cinerea (tomato Botrytis); visual disease rating (100 = 100% disease control, 0 = no control; dash = not tested)
Description: as §1, with “Botrytis cinerea” for “Alternaria solani”, “Botrytis)” for “early blight)”, “20°” for “27°”, “24°” for “20°”

Phakopsora pachyrhizi = test: Test D: test solution sprayed on soybean seedlings, inoculated next day with Phakopsora pachyrhizi (Asian soybean rust); visual disease rating (100 = 100% disease control, 0 = no control; dash = not tested)
Description: General protocol for preparing test suspensions for Tests A-F: the test compounds were first dissolved in acetone in an amount equal to 3% of the final volume and then suspended at the desired concentration (in ppm) in acetone and purified water (50/50 mix by volume) containing 250 ppm of the surfactant PEG400 (polyhydric alcohol esters). The resulting test suspensions were then used in Tests A-F.
The test solution was sprayed to the point of run-off on soybean seedlings. The following day the seedlings were inoculated with a spore suspension of Phakopsora pachyrhizi (the causal agent of Asian soybean rust) and incubated in a saturated atmosphere at 22° C. for 24 h and then moved to a growth chamber at 22° C. for 8 days, after which time visual disease ratings were made.
A rating of 100 indicates 100% disease control and a rating of 0 indicates no disease control (relative to the controls). A dash (—) indicates the compound was not tested.

[1] = tested on: Puccinia recondita f. sp. tritici; test: Test B: test solution sprayed on wheat seedlings, inoculated next day with Puccinia recondita f. sp. tritici (wheat leaf rust); disease rating (100 = 100% disease control, 0 = no control; dash = not tested)
Description: The resulting test suspensions were then used in Tests A-F. The test solution was sprayed to the point of run-off on wheat seedlings. […] A rating of 100 indicates 100% disease control and a rating of 0 indicates no disease control (relative to the controls). A dash (—) indicates the compound was not tested.

[2] = tested on: Blumeria graminis f. sp. tritici; test: Test C: test suspension sprayed on wheat seedlings, inoculated next day with Blumeria graminis f. sp. tritici (wheat powdery mildew); visual disease rating (100 = 100% disease control, 0 = no control; dash = not tested)
Description: as §1, with “on wheat” for “on tomato”, “spore dust” for “spore suspension”, “of Blumeria graminis f. sp. tritici, (also known as Erysiphe graminis f. sp. tritici, the” for “of Alternaria solani (the”, “of wheat powdery mildew)” for “of tomato early blight)”, “in” for “in a saturated atmosphere at 27° C. for 48 h, and then moved to”, “for 8” for “for 3”

Compound	Test F disease control rating (Alternaria solani)	Test A disease control rating (Zymoseptoria tritici)	Test E disease control rating (Botrytis cinerea)	Test D disease control rating (Phakopsora pachyrhizi)	Test B disease control rating [1]	Test C disease control rating [2]	pest or weed control at 50 ppm (Alternaria solani)	pest or weed control at 50 ppm (Zymoseptoria tritici)	pest or weed control at 50 ppm (Botrytis cinerea)	pest or weed control at 50 ppm (Phakopsora pachyrhizi)	pest or weed control at 50 ppm [1]	pest or weed control at 50 ppm [2]
COc1cc(OC)cc(-c2nn(C)c(=O)c(C)c2-c2ccc(F)cc2Cl)c1 [Compound 65]	99%	99%	100%	94%	100%	98%						
COc1cc(OC)cc(-c2nn(C)c(=O)c(Br)c2-c2ccc(F)cc2Cl)c1 [Compound 67]	99%	99%	99%	98%	100%	95%						
COc1ccc(Cl)c(-c2nn(C)c(=O)c(Br)c2-c2c(F)cccc2F)c1 [Compound 69]	100%	100%	100%	100%	99%	100%						
Cn1nc(-c2ccc(F)cc2Cl)c(-c2ccc(F)cc2Cl)cc1=O [Compound 70]	0%	93%	98%	52%	41%	76%						
COc1cc(C#N)cc(-c2nn(C)c(=O)cc2-c2c(F)cccc2F)c1 [Compound 71]	0%	8%	16%	0%	0%	0%						
Cn1nc(-c2ccccc2F)c(-c2ccc(F)cc2Cl)c(Cl)c1=O [Compound 72]	99%	100%	98%	75%	99%	99%						
Cn1nc(-c2ccccc2Cl)c(-c2ccc(F)cc2Cl)c(Cl)c1=O [Compound 73]	99%	100%	99%	97%	100%	99%						
CCn1nc(-c2cc(OC)cc(OC)c2Br)c(-c2c(F)cccc2F)c(OC)c1=O [Compound 74]	0%	100%	99%	75%	99%	98%						
CCn1nc(-c2cc(OC)cc(OC)c2Cl)c(-c2c(F)cccc2F)c(OC)c1=O [Compound 75]	0%	100%	97%	69%	99%	98%						
COc1cc(F)cc(-c2nn(C)c(=O)c(Cl)c2-c2ccc(F)cc2Cl)c1 [Compound 76]	99%	100%	97%	99%	100%	99%						
COc1cc(OC)c(Br)c(-c2nn(C)c(=O)c(Cl)c2-c2ccc(F)cc2Cl)c1 [Compound 77, 6-(2-bromo-3,5-dimethoxyphenyl)-4-chloro-5-(2-chloro-4-fluorophenyl)-2-methyl-3(2H)-pyridazinone]							100%	100%	97%	100%	100%	99%
COc1cc(OC)cc(-c2nn(C)c(=O)c(OC)c2-c2ccc(F)cc2Cl)c1 [Compound 78]	99%	100%	95%	59%	99%	98%						
COc1cc(OC)c(Br)c(-c2nn(C)c(=O)c(OC)c2-c2ccc(F)cc2Cl)c1 [Compound 79]	100%	100%	97%	100%	100%	100%						
Cn1nc(-c2cc(F)ccc2Cl)c(-c2ccc(F)cc2Cl)c(Cl)c1=O [Compound 82]	100%	100%	64%	100%	100%	100%						
COc1ccc(Cl)c(-c2nn(C)c(=O)c(Cl)c2-c2ccccc2)c1 [Compound 95]	24%	100%	96%	0%	99%	97%						
COc1cc(F)c(-c2c(-c3cc(OC)ccc3Cl)nn(C)c(=O)c2Cl)c(F)c1 [Compound 96]	100%	100%	96%	100%	100%	97%						
COc1ccc(Cl)c(-c2nn(C)c(=O)c(Cl)c2-c2ccc(F)cc2Br)c1 [Compound 97]	99%	100%	96%	100%	100%	100%						
CCn1nc(-c2cc(OC)cc(OC)c2Br)c(-c2c(F)cccc2F)c(C#N)c1=O [Compound 100]	93%	100%	99%	100%	100%	99%						
COc1ccc(Cl)c(-c2nn(C)c(=O)c(OC)c2-c2ccc(F)cc2Cl)c1 [Compound 101]	99%	100%	99%	100%	100%	99%						
COc1ccc(Cl)c(-c2nn(C)c(=O)c(OC)c2-c2ccc(F)cc2Br)c1 [Compound 103]	99%	100%	91%	97%	100%	100%						
Cn1nc(-c2cccc(Cl)c2Cl)c(-c2ccc(F)cc2Cl)c(Cl)c1=O [Compound 104]	99%	100%	97%	100%	100%	100%						
Cn1nc(-c2cccc(Cl)c2F)c(-c2ccc(F)cc2Cl)c(Cl)c1=O [Compound 105]	99%	100%	96%	79%	99%	99%						
Cn1nc(-c2cccc(F)c2F)c(-c2ccc(F)cc2Cl)c(Cl)c1=O [Compound 107]	100%	100%	97%	100%	100%	100%						
